# According to publication PMC4610166, “Structural and Functional Characterization of Recombinant Isoforms of the Lentil Lipid Transfer Protein” (Acta Naturae, 2015):
# Tests used:
# Test in all cases: TNS fluorescence displacement (ex […] nm, em […] nm)
# Format in all cases: binding
# Lc-LTP3 = target: T1, Lc-LTP3 (Lens culinaris, UniProt A0AT30); conditions: protein 2.5 uM; 3 uM TNS, 65 uM stearic acid; 175 mM D-mannitol, 0.5 mM K2SO4, 0.5 mM CaCl2, 5 mM MES pH 7.0, 25 C; competition with TNS
# T1 construct: mature protein, 93 residues; expressed in E. coli BL21(DE3) as His8-TrxL fusion, tag cut off with CNBr; from soluble fraction; four disulfides; monomer and dimer on SDS-PAGE
# Lc-LTP1 = target: T2, Lc-LTP1 (Lens culinaris, UniProt A0AT28); conditions: refolded protein 2.5 uM; 3 uM TNS, 65 uM stearic acid; 175 mM D-mannitol, 0.5 mM K2SO4, 0.5 mM CaCl2, 5 mM MES pH 7.0, 25 C; competition with TNS
# T2 construct: mature protein, 93 residues; expressed in E. coli BL21(DE3) as His8-TrxL fusion, tag cut off with CNBr; four disulfides; monomer and dimer on SDS-PAGE
# Lc-LTP2 = target: T3, Lc-LTP2 (Lens culinaris, UniProt A0AT29); conditions: protein 2.5 uM; 3 uM TNS, 65 uM stearic acid; 175 mM D-mannitol, 0.5 mM K2SO4, 0.5 mM CaCl2, 5 mM MES pH 7.0, 25 C; competition with TNS
# T3 sequence (A0AT29 26-118): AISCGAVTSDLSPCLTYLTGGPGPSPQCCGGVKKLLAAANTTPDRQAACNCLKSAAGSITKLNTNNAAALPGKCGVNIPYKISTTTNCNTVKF
# T1 sequence (A0AT30 26-118): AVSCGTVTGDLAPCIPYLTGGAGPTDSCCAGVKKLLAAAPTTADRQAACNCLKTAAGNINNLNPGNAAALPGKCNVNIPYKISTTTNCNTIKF
# T2 sequence (A0AT28 26-118): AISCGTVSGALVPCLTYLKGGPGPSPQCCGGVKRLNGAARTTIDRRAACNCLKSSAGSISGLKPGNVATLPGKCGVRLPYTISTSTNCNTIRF
structure (smiles),measurement,setting,value
CCCCCCCCCCCCCCCCCC(=O)O [stearic acid],% fluorescence intensity of the protein-TNS complex,Lc-LTP3,all three isoforms possess the ability to bind fatty acids
same,% fluorescence intensity of the protein-TNS complex,Lc-LTP1,all three isoforms possess the ability to bind fatty acids
same,% fluorescence intensity of the protein-TNS complex,Lc-LTP2,all three isoforms possess the ability to bind fatty acids
